The text below walks through data of patent US10655161B2, “Diagnostic and prognostic assays based on circulating tyrosine kinase activity” (Quest Diagnostics Investments Incorporated, priority 2010, dated 2020).

The subject of this test is cTK activity in plasma from a CML patient harboring the T315I mutation. Description: Ex vivo plasma cTK activity assay, plasma from a multidrug-resistant CML patient with T315I mutation. It counts as biochemical, human. Conditions: 1-5 μM imatinib (FIG. 2A). The procedure:
After incubation at 37° C. for 30 min, the PY20-HRP solution was replaced by HRP substrate solution (TMBZ).

As for `Cc1ccc(NC(=O)c2ccc(CN3CCN(C)CC3)cc2)cc1Nc1nccc(-c2cccnc2)n1` [Imatinib, imatinib], the “Inhibition of cTK activity” value is on record as “little inhibition”.
